Measurements taken from patent US11679100B2, “Methods of enhancing immunity” (The Regents of the University of California, priority 2018, dated 2023).
Values belong to the molecule of their own block, whether it stands above or below them.

Experiments:
Stat3 = molecular target: T1, Stat3 (Mus musculus, UniProt P42227); assay: mRNA expression in macrophages incubated with Stat3 inhibitor; assay type: cell-based, murine
T1 construct: endogenous in cells; host or cells: murine bone marrow derived macrophages (WT and Itgam-/-)
T1 sequence (P42227 whole entry): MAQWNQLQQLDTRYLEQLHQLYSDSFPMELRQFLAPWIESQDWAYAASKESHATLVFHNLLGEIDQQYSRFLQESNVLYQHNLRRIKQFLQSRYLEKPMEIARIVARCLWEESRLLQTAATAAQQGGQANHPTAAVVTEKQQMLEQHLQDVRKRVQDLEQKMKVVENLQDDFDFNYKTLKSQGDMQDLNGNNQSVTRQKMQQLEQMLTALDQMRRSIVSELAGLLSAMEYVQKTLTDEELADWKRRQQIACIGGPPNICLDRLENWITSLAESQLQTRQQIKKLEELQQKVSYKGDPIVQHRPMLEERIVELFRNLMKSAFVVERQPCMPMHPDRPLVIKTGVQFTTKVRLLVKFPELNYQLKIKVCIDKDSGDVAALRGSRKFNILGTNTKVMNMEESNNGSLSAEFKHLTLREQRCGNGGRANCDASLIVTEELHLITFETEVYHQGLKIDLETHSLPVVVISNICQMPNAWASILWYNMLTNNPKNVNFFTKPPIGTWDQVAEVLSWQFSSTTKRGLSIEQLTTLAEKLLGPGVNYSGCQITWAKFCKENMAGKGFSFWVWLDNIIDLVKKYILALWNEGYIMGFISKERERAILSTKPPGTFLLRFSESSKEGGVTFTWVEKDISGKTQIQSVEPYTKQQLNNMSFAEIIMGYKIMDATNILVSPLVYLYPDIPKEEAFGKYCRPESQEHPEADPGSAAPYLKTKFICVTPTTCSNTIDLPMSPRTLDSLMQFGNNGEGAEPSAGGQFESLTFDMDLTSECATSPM
Description: Macrophage Polarization—Bone marrow derived macrophages were polarized with either IFNγ (20 ng/ml, Peprotech) plus LPS (100 ng/ml, Sigma) or LPS alone for 24 h or IL-4 (20 ng/ml, Peprotech) for 24-48 h. In some cases, macrophages were incubated with inhibitors of Stat3 ([…]) or cMyc (10058-F4, Selleck). In other experiments, BMM were treated with LLC tumor conditioned media (TCM) or 100 ng/ml TGF-β (PeproTech) for 6 h to analyze changes in protein and gene expression levels. TCM was obtained by culturing LLC in serum free media for 18 h followed by collecting the supernatant and sterile filtering prior to use. In some experiments TGF-β signaling was inhibited using SB5253324 added 30 min prior and during the 6 h stimulation. Total RNA was harvested from macrophages using the RNeasy Mini Kit (Qiagen) according to the manufacturer's instructions. Secreted protein was measured in culture supernatants by ELISA assays.
Analysis of Gene Expression—Total RNA was isolated from cells using RNeasy Mini Kit (Qiagen). cDNA was prepared using 1 μg RNA with the qScript cDNA Synthesis Kit (Quanta Biosciences) or the SuperScript III First-Strand Synthesis Kit (Invitrogen). […]

LLC tumors [1] = assay: Imatinib treatment of WT and Itgam-/- mice bearing LLC tumors; assay type: in vivo
LLC tumors [2] = assay: Gemcitabine treatment of WT and Itgam-/- mice with LLC tumors; assay type: in vivo
Description: Tumor Studies—Subcutaneous tumor studies: 5×10^5 LLC or B16 cells were injected subcutaneously into syngeneic (C57BL/6) 6- to 8-week old WT or Itgam^−/− mice (n=18). Tumors were excised at 7, 14 or 21 days, cryopreserved in OCT, lysed for RNA purification or collagenase-digested for flow cytometric analysis of CD11b+, F4/80+ and Gr1+ expression. Tumor volumes were calculated using the equation (l^2×w)/2. CL66-luc cells (0.5×10^6 cells) were suspended in 50 μL of basement membrane extract Matrigel (BD Pharmingen) in PBS (1:1) and inoculated orthotopically in the fourth mammary fat pad of female Balb/cJ mice. Tumor dimensions were measured every 2 days, and tumor volume was calculated using the equation: V (mm^3)=[…], where length is the longest diameter of the tumor and width is the shorter diameter.

immune suppressive factor expression in Itgam-/- macrophages (Stat3): reduced to WT macrophage levels
Compound: C1=Cc2nc1cc1ccc([nH]1)c(-c1ccccc1)c1nc(cc3ccc([nH]3)c2-c2ccccc2)C=C1 [5,15-DPP]
Il6 expression in Itgam-/- macrophages (Stat3): did not affect the high levels of Il6 expression

Compound: Cc1ccc(NC(=O)c2ccc(CN3CCN(C)CC3)cc2)cc1Nc1nccc(-c2cccnc2)n1 [Imatinib, imatinib]
tumor growth and vascular normalization in Itgam-/- mice (LLC tumors [1]): suppressed the enhanced tumor growth and increased vascular normalization observed in Itgam−/− mice

Compound: Nc1ccn([C@@H]2O[C@H](CO)[C@@H](O)C2(F)F)c(=O)n1 [gemcitabine]
tumor growth in Itgam-/- mice versus WT mice (LLC tumors [2]): suppressed tumor growth more profoundly than gemcitabine treatment of WT mice
